# Literature values as cited in patent US20150139938A1, “Methods and Compositions for Improving Pial Collateral Circulation and Treating Blood Clotting Disorders” (Ohio State Innovation Foundation, priority 2012, published 2015).
# Test system: stroke-induced lesion in the brain of spontaneously hypertensive rats
# Conditions: orally supplemented, earlier work of the inventors
smiles,measurement,value
"CC(C)=CCC/C(C)=C/CC/C(C)=C/CC[C@]1(C)CCc2c(C)c(O)c(C)c(C)c2O1 [αTCT, α-tocotrienol]",protection against stroke-induced lesion in the brain,protects
